Source: PubChem BioAssay AID1963829 (Molecular Pharmacology Branch, DTP, NCI, 2024)
“And” between values parts separate entries of the source, which are not always exact repeats. Equal entries are not always repeated.

System: 935938-334-R-J1-PDC complex spheroid viability
Test: Anticancer human tumor 935938-334-R-J1-PDC patient-derived small intestine adenocarcinoma cell line growth inhibition [POLQ]
Details: for viability, T/C: stronger effect = lower value
Method: Multicellular complex tumor spheroid response to Polymerase (POL) inhibitors (novobiocin, ART-558, RP6685) in combination with a variety of drugs and investigational agents in selected tumor cell lines
The POL inhibitors (novobiocin, ART-558, and RP6685) were evaluated both individually and in combination with standard of care and investigational anticancer small molecules within a complex spheroid model of solid tumors. . Complex spheroids include a stromal component modeled by human endothelial cells (HUVEC) and fibroblasts modeled by human mesenchymal stem cells (MSCs). The concentration ranges selected for each drug and investigational agent were based upon clinically achievable concentrations if the clinical Cmax of the agent was known.
Compounds. The drugs and investigational agents: novobiocin (NSC847541), ART-558 (NSC835418), RP-6685 (NSC848927), peposertib (NSC802822), ceralasertib (NSC780249), elimusertib (NSC800525), camonsertib (NSC841442), AZD-1390 (NSC803789), olaparib (NSC753686), talazoparib (NSC767125), rucaparib (NSC756644), sotorasib (NSC818433), MRTX-1133 (NSC836407), SN-38 (NSC673596), topotecan (NSC609699), epotoside (NSC141540), doxorubicin (NSC123127), gemcitabine (NSC613327), 5-fluorouracil (NSC19893), paclitaxel (NSC125973), vemurafenib (NSC761431), MSA-2 (NSC828583), SN-011 (NSC837082), adavosertib (NSC754352), prexasertib (NSC758257), carboplatin (NSC241240) and oxaliplatin (NSC266046), were obtained from the National Cancer Institute (NCI) Developmental Therapeutics Program Chemical Repository (21). The FDA-approved anticancer drug set is available from the Developmental Therapeutics Program at https://dtp.cancer.gov/organization/dscb/obtaining/. […] The stock solutions were prepared in dimethyl sulfoxide (DMSO, Sigma-Aldrich, St. Louis, MO, cat. D2650), except for the platinum compounds which were prepared in saline (Quality Biological, Gaithersburg, MD, cat. 114-055-101), at 800-fold the tested concentration and stored at -70 degrees C prior to their use. All drugs and investigational agents were tested over a range starting from a high concentration at or near the clinical Cmax and decreasing in half-log increments. If the clinical Cmax for an agent had not been determined, the highest concentration tested was 10 microM, except for SN-38, which was tested at a high concentration of 1 microM.
Cell Culture. All cells were maintained in an incubator at 37 degrees C and 5% CO2 with 95% humidity. The PDC lines were cultured according to standard operating procedures established by the NCI PDMR (https://pdmr.cancer.gov). Table 3 of the manuscript, lists the cell lines along with the number of the three cell types plated to form the mct-spheroids and media for tumor cell growth. After thawing, all PDC lines, except 997537-175-T-J1-PDC and 415267-285-R-J2-PDC, were cultured in Matrigel-coated flasks prepared with a working solution of 1X Ham's F-12 nutrient mix, without supplementation (Thermo Fisher Scientific, cat. 11765054), 100 U/mL penicillin-streptomycin (Thermo Fisher Scientific, cat. 15140122), and 2.5% Matrigel (Corning Inc., Corning, NY, cat. 354248) for the first three passages. The two PDC lines 997537-175-T-J1-PDC and 415267-285-R-J2-PDC were cultured on uncoated flasks. The 857933-349-R-J2-PDC line was cultured in 6C/Colon 1B media containing advanced DMEM/F-12 (Thermo Fisher Scientific, cat. 12634028), 10 mM HEPES (Thermo Fisher Scientific, cat. 15630080), 1X GlutaMAX supplement (Thermo Fisher Scientific, cat. 35050061), 0.1 mg/mL primocin (InvivoGen, San Diego, CA, cat. ant-pm-2), 10% defined fetal bovine serum, heat inactivated (HyClone Laboratories Inc., Logan, UT, cat. SH30070.03HI), 50% L-WRN conditioned media (ATCC, cat. CRL-3276), 1.25 mM N-Acetyl-L-cysteine (Sigma-Aldrich, cat. A9165), 10 mM nicotinamide (Sigma-Aldrich, cat. N0636), 1X B-27 supplement (Thermo Fisher Scientific, cat. 17504044), 1X N-2 supplement (Thermo Fisher Scientific, cat. […]

[1] = curve of first compound, second compound 0.0316 µM
[2] = curve of first compound, second compound 0.1 µM
[3] = curve of first compound, second compound 0.316 µM
[4] = curve of first compound, second compound 1 µM
[5] = curve of first compound, second compound 3.16 µM
[6] = curve of first compound, second compound 10 µM
[7] = second compound 0.0316 µM, first compound 0.0316 µM
[8] = second compound 0.0316 µM, first compound 0.1 µM
[9] = second compound 0.0316 µM, first compound 0.316 µM
[10] = second compound 0.0316 µM, first compound 1 µM
[11] = second compound 0.0316 µM, first compound 3.16 µM
[12] = second compound 0.0316 µM, first compound 10 µM
[13] = second compound 0.1 µM, first compound 0.0316 µM
[14] = second compound 0.1 µM, first compound 0.1 µM
[15] = second compound 0.1 µM, first compound 0.316 µM
[16] = second compound 0.1 µM, first compound 1 µM
[17] = second compound 0.1 µM, first compound 3.16 µM
[18] = second compound 0.1 µM, first compound 10 µM
[19] = second compound 0.316 µM, first compound 0.0316 µM
[20] = second compound 0.316 µM, first compound 0.1 µM
[21] = second compound 0.316 µM, first compound 0.316 µM
[22] = second compound 0.316 µM, first compound 1 µM
[23] = second compound 0.316 µM, first compound 3.16 µM
[24] = second compound 0.316 µM, first compound 10 µM
[25] = second compound 1 µM, first compound 0.0316 µM
[26] = second compound 1 µM, first compound 0.1 µM
[27] = second compound 1 µM, first compound 0.316 µM
[28] = second compound 1 µM, first compound 1 µM
[29] = second compound 1 µM, first compound 3.16 µM
[30] = second compound 1 µM, first compound 10 µM
[31] = second compound 3.16 µM, first compound 0.0316 µM
[32] = second compound 3.16 µM, first compound 0.1 µM
[33] = second compound 3.16 µM, first compound 0.316 µM
[34] = second compound 3.16 µM, first compound 1 µM
[35] = second compound 3.16 µM, first compound 3.16 µM
[36] = second compound 3.16 µM, first compound 10 µM
[37] = second compound 10 µM, first compound 0.0316 µM
[38] = second compound 10 µM, first compound 0.1 µM
[39] = second compound 10 µM, first compound 0.316 µM
[40] = second compound 10 µM, first compound 1 µM
[41] = second compound 10 µM, first compound 3.16 µM
[42] = second compound 10 µM, first compound 10 µM
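Note: spheroids exposed to drugs for seven days before viability read.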
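Throughout, for viability, T/C: 100% = DMSO vehicle control wells.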

CNCc1ccc(-c2[nH]c3cc(F)cc4c3c2CCNC4=O)cc1 + Nc1ccc(C#CCN(C(=O)Cc2ncc(C(F)(F)F)cc2C(F)(F)F)c2ccc(F)cc2)nn1
IC50 [1]: > 10000 nM | IC50 [2]: > 10000 nM | IC50 [3]: > 10000 nM | IC50 [4]: > 10000 nM | IC50 [5]: > 10000 nM | IC50 [6]: > 10000 nM | viability, T/C [7]: 96.6% | viability, T/C [8]: 104% | viability, T/C [9]: 105% | viability, T/C [10]: 77.2% | viability, T/C [11]: 80% | viability, T/C [12]: 96.1% | viability, T/C [13]: 85.8% | viability, T/C [14]: 80.5% | viability, T/C [15]: 112% | viability, T/C [16]: 91.8% | viability, T/C [17]: 100% | viability, T/C [18]: 96.5% | viability, T/C [19]: 126% | viability, T/C [20]: 102% | viability, T/C [21]: 110% | viability, T/C [22]: 95.7% | viability, T/C [23]: 107% | viability, T/C [24]: 89.2% | viability, T/C [25]: 77.2% | viability, T/C [26]: 78.2% | viability, T/C [27]: 121% | viability, T/C [28]: 86.7% | viability, T/C [29]: 111% | viability, T/C [30]: 127% | viability, T/C [31]: 109% | viability, T/C [32]: 79% | viability, T/C [33]: 110% | viability, T/C [34]: 106% | viability, T/C [35]: 75% | viability, T/C [36]: 104% | viability, T/C [37]: 111% | viability, T/C [38]: 99.5% | viability, T/C [39]: 107% | viability, T/C [40]: 116% | viability, T/C [41]: 106% | viability, T/C [42]: 130%

O=C(Nc1ccc(O)c(NS(=O)(=O)c2ccc(F)cc2)c1)c1ccc(-c2ccccc2)cc1
viability, T/C (compound 0.0316 µM): 105% and 85.8% and 92.8% | viability, T/C (compound 0.1 µM): 90.5% and 105% and 85.8% | viability, T/C (compound 0.316 µM): 76.6% and 90.5% and 111% | viability, T/C (compound 1 µM): 80.5% and 76.2% and 111% | viability, T/C (compound 3.16 µM): 103% and 84.1% and 91.1% | viability, T/C (compound 10 µM): 93.4% and 63.7% and 69.9% | IC50 (curve of compound): > 10000 nM

Nc1ccn(C2OC(CO)C(O)C2(F)F)c(=O)n1 (configuration not stated)
viability, T/C (compound 0.0316 µM): 39.8% and 30.9% and 30.5% | viability, T/C (compound 0.1 µM): 26.2% and 19.4% and 23.6% | viability, T/C (compound 0.316 µM): 23.7% and 17.5% and 14.9% | viability, T/C (compound 1 µM): 22.1% and 18.1% and 16% | viability, T/C (compound 3.16 µM): 20.7% (2×) and 16.5% | viability, T/C (compound 10 µM): 18.4% and 16% and 17.2% | IC50 (curve of compound): < 31.6 nM

CCc1c2c(nc3ccc(O)cc13)-c1cc3c(c(=O)n1C2)COC(=O)[C@]3(O)CC
viability, T/C (compound 0.00316 µM): 59.3% and 81% and 86.5% | viability, T/C (compound 0.01 µM): 70.9% and 60% and 64% | viability, T/C (compound 0.0316 µM): 42.9% and 36.9% and 39.4% | viability, T/C (compound 0.1 µM): 31.1% and 30.2% and 33.9% | viability, T/C (compound 0.316 µM): 39.8% and 38.2% and 27.4% | viability, T/C (compound 1 µM): 35.2% and 33.7% and 25.6% | IC50 (curve of compound): 21.9 nM and 16.3 nM and 20.1 nM

Nc1ccn(C2OC(CO)C(O)C2(F)F)c(=O)n1 (configuration not stated) + Nc1ccc(C#CCN(C(=O)Cc2ncc(C(F)(F)F)cc2C(F)(F)F)c2ccc(F)cc2)nn1
IC50 [1]: < 31.6 nM | IC50 [2]: < 31.6 nM | IC50 [3]: < 31.6 nM | IC50 [4]: < 31.6 nM | IC50 [5]: < 31.6 nM | IC50 [6]: < 31.6 nM | viability, T/C [7]: 35.4% | viability, T/C [8]: 27.6% | viability, T/C [9]: 17.3% | viability, T/C [10]: 17.3% | viability, T/C [11]: 18.2% | viability, T/C [12]: 16.8% | viability, T/C [13]: 33.2% | viability, T/C [14]: 24.4% | viability, T/C [15]: 16.5% | viability, T/C [16]: 17.5% | viability, T/C [17]: 19.1% | viability, T/C [18]: 13.9% | viability, T/C [19]: 31.1% | viability, T/C [20]: 24.8% | viability, T/C [21]: 23.2% | viability, T/C [22]: 19.6% | viability, T/C [23]: 17.1% | viability, T/C [24]: 14.4% | viability, T/C [25]: 33.2% | viability, T/C [26]: 23.4% | viability, T/C [27]: 18.2% | viability, T/C [28]: 19.1% | viability, T/C [29]: 16.6% | viability, T/C [30]: 15.3% | viability, T/C [31]: 30.2% | viability, T/C [32]: 25.6% | viability, T/C [33]: 20.2% | viability, T/C [34]: 21.2% | viability, T/C [35]: 17.5% | viability, T/C [36]: 17.1% | viability, T/C [37]: 42.9% | viability, T/C [38]: 31.6% | viability, T/C [39]: 30.1% | viability, T/C [40]: 20.6% | viability, T/C [41]: 19.8% | viability, T/C [42]: 19.2%

CC(C)n1c(=O)n(C)c2cnc3cc(F)c(-c4ccc(OCCCN5CCCCC5)nc4)cc3c21
viability, T/C (compound 0.0316 µM): 75.1% and 94.3% and 79.1% | viability, T/C (compound 0.1 µM): 104% and 75.2% and 67.4% | viability, T/C (compound 0.316 µM): 103% and 102% and 65.2% | viability, T/C (compound 1 µM): 92.1% and 121% and 73.4% | viability, T/C (compound 3.16 µM): 113% and 120% and 72.1% | viability, T/C (compound 10 µM): 94.9% and 91.5% and 72.9% | IC50 (curve of compound): > 10000 nM
